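Values below derive from 48-hour exposures of cells grown in 96-well plates, with endpoints linearly interpolated between the two concentrations bracketing the appropriate inhibition level. Here, GI50 denotes the concentration required for 50% inhibition of growth. TGI marks complete inhibition of growth.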
What was measured:
Experiment in all cases: growth of human tumour cells (NCI), 48 h
CCRF-CEM leukemia = tested on: CCRF-CEM leukemia
SK-OV-3 ovarian = tested on: SK-OV-3 ovarian
SF-295 CNS = tested on: SF-295 CNS
IGROV1 ovarian = tested on: IGROV1 ovarian
MALME-3M melanoma = tested on: MALME-3M melanoma
MOLT-4 leukemia = tested on: MOLT-4 leukemia
KM12 colon = tested on: KM12 colon
HCC-2998 colon = tested on: HCC-2998 colon
DU-145 prostate = tested on: DU-145 prostate
M14 melanoma = tested on: M14 melanoma

SMILES | GI50 (CCRF-CEM leukemia) [µM] | TGI (CCRF-CEM leukemia) [µM] | GI50 (SK-OV-3 ovarian) [µM] | TGI (SK-OV-3 ovarian) [µM] | GI50 (SF-295 CNS) [µM] | TGI (SF-295 CNS) [µM] | GI50 (IGROV1 ovarian) [µM] | TGI (IGROV1 ovarian) [µM] | GI50 (MALME-3M melanoma) [µM] | TGI (MALME-3M melanoma) [µM] | GI50 (MOLT-4 leukemia) [µM] | TGI (MOLT-4 leukemia) [µM] | GI50 (KM12 colon) [µM] | TGI (KM12 colon) [µM] | GI50 (HCC-2998 colon) [µM] | TGI (HCC-2998 colon) [µM] | GI50 (DU-145 prostate) [µM] | TGI (DU-145 prostate) [µM] | GI50 (M14 melanoma) [µM] | TGI (M14 melanoma) [µM]
COc1cc(C(=O)O)ccc1NC(=O)[C@@H]1N[C@@H](CC(C)(C)C)[C@](C#N)(c2ccc(Cl)cc2F)[C@H]1c1cccc(Cl)c1F | 2.53 | > 26.3 | 7.02 | 21.3 | 2.78 | 8.64 | 2.21 | 17.3 | 0.0448 | 8.27 | 0.083 | 2.07 | 2.58 | > 24.2 | 4.62 | 13.3 | 5.24 | 30.4 | 3.18 | > 30.1
CNC(=O)c1ccc(Nc2nc(OC3CCCC3)c3c(-c4ccc5nc(C)oc5c4)c[nH]c3n2)c(OC)c1 | 0.124 | > 44.4 |  | > 100 |  | > 100 | 0.448 | > 100 | 21.6 | > 100 | 1.63 | > 100 | 9.47 | > 100 | > 100 | > 100 | 6.31 | > 100 | 16.9 | > 100
CCN(CC)CCCC(C)N/C(c1cccc(OC)c1)=c1\c(=O)[nH]n(-c2c3ccccc3nc3ccccc23)c(=O)\c1=C(/NC(C)CCCN(CC)CC)c1cccc(OC)c1 (stereo not drawn) | 0.482 | 3.93 | 2.23 | 7.2 | 1.74 | 3.86 | 1.52 | 4.99 | 1.9 | 3.54 | 0.6 | 3.89 | 1.18 | 6.51 | 1.44 | 2.92 | 1.44 | 8.86 | 2.01 | 4.1
C=C1C(=O)O[C@H]2[C@H]1CC/C(Cn1cc(Cn3ccc4cc(Cl)ccc43)nn1)=C\CC[C@@]1(C)O[C@@H]21 | 0.338 | 1.18 | 13.9 | 26.9 | 3.98 | 17 | 1.42 | 2.9 | 1.58 | 3.13 | 0.599 | 3.16 | 2.01 | 4.24 | 1.98 | 3.92 | 1.55 | 2.89 | 1.65 | 3.63
Cc1c(N(C(=O)c2cc(-c3cc(Cl)ccc3C(=O)N3Cc4ccccc4C[C@H]3CN3CCOCC3)n(C)c2C)c2ccc(O)cc2)cc(C#N)n1C | 8.02 | > 100 | 17.9 | > 100 | 13.2 | > 100 | 23.8 | > 100 | 20.8 | 64.3 | 2.98 | > 100 | 51 | > 100 | 15.1 | 44.9 | 32.5 | > 100 | 21.8 | > 100
OCC1OC(O)C(N=Cc2ccc3c(c2)OCO3)C(O)C1O (stereo not drawn) |  | > 40.1 |  | > 100 |  | > 100 |  | > 100 |  | > 100 |  | > 100 |  | > 100 |  | > 100 |  | > 100 |  | > 100
O=C(Nc1nc(-c2ccc(Cl)cc2)cs1)c1ccc(O)c(O)c1 | 2.22 | 9.35 | 6.83 | 22.4 | 11.5 | 26.2 | 2.38 | 8.04 | 5.73 | 22.2 | 2.48 | 12.3 | 5.36 | 21.2 | 12 | 26.5 | 4.43 | 15.9 | 4.87 | 20.5
CCC[C@H](Nc1nc(-c2ccc(NC(=O)NCC)c(OC)c2)ncc1C)c1cccnc1 | 0.032 |  | 0.0365 | 15 | 0.0253 | 0.0678 | 0.0566 | 24.6 | 13.8 | 49.1 | 0.0359 | 13.1 | 0.0337 | 0.225 | 0.0295 | 0.874 | 0.028 | 0.0753 | 0.0282 | 0.0824
Cc1cc(S(=O)(=O)/N=C(\N)n2nc(C)c(C)c2C)c(SCc2ccccc2)cc1Cl | 4.49 | > 100 | > 100 | > 100 | 7.99 | > 100 |  |  | > 100 | > 100 | 3.52 | > 100 | 9.47 | > 100 | > 100 | > 100 | > 100 | > 100 | > 100 | > 100
CCN(CC)CCCN1C(=O)c2c(c(C)c3c(oc4cc(O)ccc43)c2C)C1=O | 0.359 | 1.76 | 1.73 | 3.2 | 1.84 | 3.32 | 1.74 | 3.4 | 1.83 | 3.51 |  |  | 1.8 | 3.37 | 1.78 | 3.27 | 1.83 | 3.32 | 1.8 | 3.28
